Assays:
tyrosine kinase Mer = target: T1, tyrosine kinase Mer (Homo sapiens, UniProt Q12866); assay: HTRF assay, inhibitory activity against tyrosine kinase Mer; format: biochemical; details: ATP at Km (30 μM), two duplicate wells
T1 construct: purchased Carna 08-108
T1 sequence (Q12866 528-999 limits assumed): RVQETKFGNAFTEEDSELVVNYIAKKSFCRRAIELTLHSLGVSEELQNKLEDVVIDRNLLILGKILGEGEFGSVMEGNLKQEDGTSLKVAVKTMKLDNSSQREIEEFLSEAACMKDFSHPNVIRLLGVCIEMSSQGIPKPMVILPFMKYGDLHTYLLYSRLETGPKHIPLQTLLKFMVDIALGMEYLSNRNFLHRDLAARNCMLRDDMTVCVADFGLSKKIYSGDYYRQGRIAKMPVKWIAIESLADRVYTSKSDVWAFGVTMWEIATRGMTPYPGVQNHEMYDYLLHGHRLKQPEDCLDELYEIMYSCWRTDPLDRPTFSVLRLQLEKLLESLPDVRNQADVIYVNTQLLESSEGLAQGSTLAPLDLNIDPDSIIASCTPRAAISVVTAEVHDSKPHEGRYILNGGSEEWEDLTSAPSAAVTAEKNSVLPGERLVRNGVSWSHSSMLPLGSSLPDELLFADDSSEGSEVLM
Protocol: Test Example 2: Evaluation of Inhibitory Activity (IC50) of Compounds disclosed herein against Tyrosine Kinases Mer and Tyro3
In this test, HTRF method was used to test the inhibitory activity of compounds when ATP concentrations correspond to the Km of the kinases. The control substance was RXDX-106. The concentration of test compound was 3-fold diluted from an initial concentration of 10 μM, and two duplicate wells were set.
Kinase Mer (Carna, Cat. No. 08-108, Lot. No. 14CBS-0421H); Tyro3 (Carna, Cat. No. 08-109, Lot. No. 08CBS-1186H); HTRF kinase-TK kit (Cisbio, Cat. No. 62TK0PEC), the kit comprising: biotin-TK substrate lyophilized powder (Cisbio, Cat. No. 61TK0BLC, Lot. No. 07A), streptavidin-XL665 (Cisbio, Cat. No. 610SAXLG, Lot. No. 126A), TK antibody-cryptate (Cisbio, Cat. No. 610SAXLG, Lot. No. 04A), and detection buffer (including EDTA) (Cisbio, Cat. No. 62TK0PEC, Lot. No. 12A); ATP (Sigma, Cat. No. A7699-5G, CAS No. 34369-07-8, Lot. No. SLBQ6014V); DMSO (Sigma, Cat. No. D5879-1L, Lot. No. SHBH9944); HEPES (Sigma, Cat. No. V900477-500G, CAS No. 7365-45-9, Lot. No. WXBC4716V); MgCl2 (Sigma, Cat. No. 208337-1KG, Lot. No. MKBX9508V); EGTA (Sigma, Cat. No. E3889-100g, CAS 67-42-5, […], Lot. No. SLBG8546V); NP-40 (Beijing Dingguo, Cat. No. DH218, Lot. No. 36R00160); DTT (Sigma, Cat. No. D0632-25g, CAS No. 3483-12-3, Lot. No. SLBF3964V); compound plate (Labcyte, Cat. No. LP0200, Lot. No. 0006386836); assay plate (Greiner, Cat. No. 784075, Lot. No. E16123HM); control substance RXDX-106 (prepared according to the method disclosed in patent WO2013074633).
1) Preparation of a buffer: 50 mM HEPES, 10 mM MgCl2, 1 mM EGTA, 0.01% NP-40, 2 mM DTT.
2) Preparation of control substance and test samples: RXDX-106 and the compounds disclosed herein were each dissolved in DMSO to 10 mM and then diluted to 1 mM or an appropriate concentration with DMSO, and then serial double dilution was performed using BRAVO (Agilent). 100 nL of each was transferred from a compound plate (Labcyte-LP0200) to an assay plate (Greiner-784075) using ECHO 555 (Labcyte). The final concentration of DMSO was 1%.
3) Mer and Tyro3 were each diluted to 0.5 nM and 1.2 nM with the detection buffer (Cisbio, Cat. No. 62TK0PEC, Lot. No. 12A). 5 μL of each was added to a 384-well plate and incubated with the compounds disclosed herein for 30 min at 22-25° C. Final concentrations of Mer and Tyro3 were 0.25 nM and 0.6 nM, respectively.
4) Biotin-TK substrate and ATP were each diluted to a concentration twice the final concentration with 1× kinase buffer made up of HEPES, NaN3, BSA and orthovanadate. 5 μL of the mixture of substrate and ATP was added to the 384-well plate to initiate the reaction, which lasts for 1 h at 22-25° C.
5) Streptavidin-XL665 and TK antibody-cryptate were diluted to 250 nM and 0.5 nM, respectively, with the detection buffer. […] of each of the two solutions was added to the 384-well plate to initiate the reaction, which lasts for 1 h at 22-25° C. The final concentrations of streptavidin-XL665 and TK antibody-cryptate were 125 nM and 0.25 nM, respectively.
6) The fluorescence intensities at 665 nm and 615 nm were read with an Envision Reader (PerkinElmer) .
7) IC50 values of the compounds were fitted with XL-fit software.

kinase c-MET = target: T2, kinase c-MET (Homo sapiens, UniProt P08581); assay: Mobility shift assay, inhibitory activity against kinase c-MET; format: biochemical; details: ATP at Km (35 μM), average of two independent experiments
T2 construct: purchased Carna 08-151
T2 sequence (P08581 956-1390 limits assumed): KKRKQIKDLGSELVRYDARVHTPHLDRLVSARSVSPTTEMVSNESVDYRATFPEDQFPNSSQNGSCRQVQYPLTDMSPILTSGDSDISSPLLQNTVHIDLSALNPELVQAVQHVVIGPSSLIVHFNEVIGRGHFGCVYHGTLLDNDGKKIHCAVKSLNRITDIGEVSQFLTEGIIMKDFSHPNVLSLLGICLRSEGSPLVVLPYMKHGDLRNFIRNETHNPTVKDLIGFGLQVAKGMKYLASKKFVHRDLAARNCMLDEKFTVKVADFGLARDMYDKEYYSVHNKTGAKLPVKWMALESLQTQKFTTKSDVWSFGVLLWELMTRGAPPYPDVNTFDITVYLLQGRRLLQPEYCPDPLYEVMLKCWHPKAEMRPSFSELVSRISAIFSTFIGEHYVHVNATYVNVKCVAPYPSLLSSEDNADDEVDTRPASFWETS

How did the IC50 (tyrosine kinase Mer) turn out when `COc1cc2nccc(Oc3ccc(NC(=O)c4cn(C(C)C)c(C#N)c(-c5ccc(F)cc5)c4=O)cc3F)c2cc1OC` [Example 24, 6-cyano-N-(4-((6,7-dimethoxyquinolin-4-yl)oxy)-3-fluoro-phenyl)-5-(4-fluorophenyl)-1-isopropyl-4-oxo-1,4-dihydropyridine-3-carboxamide] was run?
Its IC50 is 11.4 nM.

How did the IC50 (tyrosine kinase Mer) turn out when `CCn1cc(-c2cnc(N)c(-c3ccc(NC(=O)c4cn(C(C)C)c(C#N)c(-c5ccc(F)cc5)c4=O)cc3F)c2)cn1` [Example 3, N-(4-(2-amino-5-(1-ethyl-1H-pyrazol-4-yl)pyridin-3-yl)-3-fluoro-phenyl)-6-cyano-5-(4-fluorophenyl)-1-isopropyl-4-oxo-1,4-dihydropyridine-3-carboxamide] was run?
Its IC50 is 1.11 nM.

And the IC50 (kinase c-MET)?
The IC50 was 30 nM.

For `CCn1cc(-c2cnc(N)c(-c3ccc(NC(=O)c4cn(C5CC5)c(C#N)c(-c5ccc(F)cc5)c4=O)cc3F)c2)cn1` [Example 10, N-(4-(2-amino-5-(1-ethyl-1H-pyrazol-4-yl)pyridin-3-yl)-3-fluorophenyl)-6-cyano-5-(4-fluorophenyl)-1-cyclopropyl-4-oxo-1,4-dihydropyridine-3-carboxamide], which IC50 (tyrosine kinase Mer) is on record?
The IC50 was 2.17 nM.

And the IC50 (kinase c-MET)?
Its IC50 is 23 nM.

With `CC(C)n1cc(C(=O)Nc2ccc(-c3cc(-c4cnn(C)c4)cnc3N)c(F)c2)c(=O)c(-c2ccc(F)cc2)c1C#N` [Example 4, N-(4-(2-amino-5-(1-methyl-1H-pyrazol-4-yl)pyridin-3-yl)-3-fluorophenyl)-6-cyano-5-(4-fluorophenyl)-1-isopropyl-4-oxo-1,4-dihydropyridine-3-carboxamide] as the compound, how does the IC50 (tyrosine kinase Mer) read?
The IC50 was 0.78 nM.

And the IC50 (kinase c-MET)?
Its IC50 is 3 nM.

With `CC(C)n1cc(C(=O)Nc2ccc(-c3cc(-c4cnn(C5CCNCC5)c4)cnc3N)c(F)c2)c(=O)c(-c2ccc(F)cc2)c1C#N` [Example 2, N-(4-(2-amino-5-(1-(piperidin-4-yl)-1H-pyrazol-4-yl)pyridin-3-yl)-3-fluorophenyl)-6-cyano-5-(4-fluorophenyl)-1-isopropyl-4-oxo-1,4-dihydropyridine-3-carboxamide] as the compound, how does the IC50 (tyrosine kinase Mer) read?
The IC50 was 0.62 nM.

And the IC50 (kinase c-MET)?
Its IC50 is 14 nM.

Which results are given for `CC(C)n1cc(C(=O)Nc2cc(F)c(-c3cc(-c4cnn(C)c4)cnc3N)cc2F)c(=O)c(-c2ccc(F)cc2)c1C#N` [Example 6, N-(4-(2-amino-5-(1-methyl-1H-pyrazol-4-yl)pyridin-3-yl)-2,5-difluorophenyl)-6-cyano-5-(4-fluorophenyl)-1-isopropyl-4-oxo-1,4-dihydropyridine-3-carboxamide]?
IC50 (tyrosine kinase Mer): 1.17 nM; IC50 (kinase c-MET): 26 nM

Which IC50 (tyrosine kinase Mer) does the source give for `CCn1cc(-c2cnc(N)c(-c3cc(F)c(NC(=O)c4cn(C(C)C)c(C#N)c(-c5ccc(F)cc5)c4=O)cc3F)c2)cn1` [Example 33, N-(4-(2-amino-5-(1-ethyl-1H-pyrazol-4-yl)pyridin-3-yl)-2,5-difluorophenyl)-6-cyano-5-(4-fluorophenyl)-1-isopropyl-4-oxo-1,4-dihydropyridine-3-carboxamide] here?
Its IC50 is 0.92 nM.

For `[2H]C([2H])([2H])n1cc(-c2cnc(N)c(-c3cc(F)c(NC(=O)c4cn(C(C)C)c(C#N)c(-c5ccc(F)cc5)c4=O)cc3F)c2)cn1` [Example 34, N-(4-(2-amino-5-(1-methyl-d3-1H-pyrazol-4-yl)pyridin-3-yl)-2,5-difluorophenyl)-6-cyano-5-(4-fluorophenyl)-1-isopropyl-4-oxo-1,4-dihydropyridine-3-carboxamide], which IC50 (tyrosine kinase Mer) is on record?
Its IC50 is 1.16 nM.

Which IC50 (tyrosine kinase Mer) does the source give for `CC(C)n1cc(C(=O)Nc2ccc(-c3cc(-c4cnn(C5CCN(C)CC5)c4)cnc3N)c(F)c2)c(=O)c(-c2ccc(F)cc2)c1C#N` [Example 7, N-(4-(2-amino-5-(1-(1-methylpiperidin-4-yl)-1H-pyrazol-4-yl)-pyridin-3-yl)-3-fluorophenyl)-6-cyano-5-(4-fluorophenyl)-1-isopropyl-4-oxo-1,4-dihydro-pyridine-3-carboxamide] here?
Its IC50 is 0.63 nM.

— US20210355107A1, “MULTI-SUBSTITUTED PYRIDONE DERIVATIVES AND MEDICAL USE THEREOF” (Beijing Yuezhikangtai Biomedicines Co., Ltd., priority 2018, published 2021)
